# Measured values reported in patent EP3351262A1, “CURAGLUTIDE FOR IN TREATMENT OF PREDIABETES, DIABETES, OBESITY AND METABOLIC DISEASES ASSOCIATED THERETO” (Istanbul Universitesi Rektorlugu, priority 2016, dated 2018).
# Several values for one entry are separate records, joined by “and”; a condition that tells them apart may be missing. Identical values can stand only once.
# Tests used:
# Type in all cases: cell-based, rat
# [1] = tested on: active caspase-3; test: Western blotting of apoptotic protein active caspase-3 in cell lysates; settings: for amount of active caspase-3: control 1.07±0.01; for active caspase-3 amounts: INS-1 cells, normalized to β-actin
# Protocol: (§1) Trypsin is applied to 75 cm^2 flask containing INS-1 […] beta cells and it is centrifuged in 1500 rpm for 15 minutes. According to the density of pellet formed after centrifuge, it is centrifuged at 4 °C in 1500 rpm for 5 minutes by providing the washing with pipetting with PBS and transferring into 2 ml eppendorf. The supernatant was removed, lysis buffer was added according to the density of pellet and pipetting is performed carefully. It was left for 30 minutes on the ice by vortexing in every 10 minutes. Then the cells were allowed to lysis by ultrasonication for 10 seconds for 5 times, keeping on ice for 10 seconds and they were centrifuged at 4 °C in 13000 rpm for 10 minutes. The supernatant occurred was taken to 0,2 ml eppendorf tubes, and they were taken to -86 °C temperature. These operations were repeated for 3 times for each of the control and experiment groups.
# (§2) Bradford method was used in order to determine the protein content. First, a standard curve was formed by using BSA (bovine serum albumin) having a concentration of 1.46 mg/ml. This curve was prepared as following: Bradford solution was added into 80 µg/ml, 40 µg/ml, 20 µg/ml, 10 µg/ml BSA, their absorbance was measured in 595 nm, it was diluted in a way that the lysates are 1/100 and 160 µl was taken, their absorbance in the same wavelengths was determined. After absorbance/concentration graph of the standards was obtained, the concentrations of the samples whose concentrations are […] were determined by using the slope equation of this graph.
# (§3) Protein bands separated by electrophoresis in gel were transferred from the gel into nitrocellulose membrane. After membrane transferring operation, transfer efficiency was controlled for 15 minutes by using Ponceau S painting solution.
# (§4) The membrane wherein the proteins were transferred, was incubated at room temperature for 1 hour with blocking solution prepared with skimmed milk powder. The membranes were incubated with primary antibodies suitable diluting ratios (Table 1) for 1 night at +4 °C, following the blocking operation. Following this operation, washed membranes were treated with peroxidase marked goat anti-rabbit secondary IgGs (Santa Cruz, CA, USA, sc-2004) at room temperature for 1 hour. Following the treatment with secondary antibodies of membranes, they were washed with washing solution and shaken with pure water. Then, the specific protein bands were monitored by KodakGL1500 gel monitoring system, by chemiluminescence method using Western Blotting Luminol Reagent (Santa Cruz, CA, USA, sc-2048) chemiluminescence substrate. Their densitometric analysis were performed by "Kodak Molecular Imaging Systems" software. The statistical analysis between the bands were performed by normalizing the band densities of the protein samples whose densitometric analysis were performed, to the density of β-actin protein. Table 1: The primary antibodies used in Western blotting method, the dilution ratios and periods thereof
# (§5) In order to determine the apoptosis dose, p 53, cytochrome-c and active caspase-3 protein amounts were determined by western blotting method by obtaining lysate from the cells in which 0.75, 1,1.75,2,2.5 and 3 mM palmitic acid were applied. The graph obtained from western blotting bands and the calculation performed as a result of the analysis of these bands is shown in Figure 3.
# (§6) The amount of intracellular proteins such as p53, cytochrome-c and active caspase-3 were observed by western blotting in order to examine the effect of curaglutide on apoptosis stimulated by 2 mM palmitic acid in INS-1 beta cells.
# [2] = tested on: p53; test: Western blotting of apoptotic protein p53 in cell lysates; settings: for amount of intracellular p53: control 1.06±0.00; for p-53 amounts: INS-1 cells, normalized to β-actin
# Protocol: as §1, §2, §3, §4, §5, §6
# [3] = tested on: INS-1 cells; test: Lactate dehydrogenase (LDH) release cytotoxicity test (necrosis); settings: for % cytotoxicity values: LDH secretion; for cytotoxicity value percentages: 24 h, positive control (lysis) 100%
# Protocol: Lactate dehydrogenase (LDH) release test is based on the measurement of the activity of lactate dehydrogenase which is a cytoplasmic enzyme released from the dead cells or cells with damaged plasma membrane and it is used in cellular cytotoxicity assessment. The cytotoxic effect of palmitic acid on […] pancreatic INS-1 cell strain was determined by LDH activity released from the damaged cells and for this purpose Cytotoxicity Determination Kit, LDH (Roche Molecular Marker) was used.
# In LDH test, as well as the experimental groups wherein palmitic acid was applied, negative control group for spontaneous LDH release from the cells and positive control group for LDH release were studied. Since palmitic acid in 0.5, 0.75 and 1 mM doses decreases the cell viability, these doses and the control group of the highest dose were studied. The cells were removed by trypsin-EDTA and centrifuged, after growth in 75 cm^2 flask. The cells were suspended in medium in a way such that there would be 50 000 cells in 100 µl, and 100 µl cell suspension was transferred into plates with 96 wells. 10 wells were studied for each of the control and experiment groups and the experiment was repeated for 3 times. After the incubation for 24 hours, the control groups were washed with PBS, and they were freshened with the medium without sodium pyruvate and beta-mercaptoethanol. The medium of the experiment groups was changed with the medium containing different concentrations of palmitic acid. Following the incubation of the cells with palmitic acid for 24 hours, LDH activity released from the cells was determined according to the instructions of the manufacturer. 5 µl lysis solution (2% Triton-X-100) was added to the wells of positive control group and the plate was incubated at 37 °C for 15 minutes. In order to measure LDH activity, the fresh reaction mixture prepared containing catalyst (Diaphorase+NAD mixture) and paint solution (Iodotetrazolium chloride (INT) and sodium lactate) was added to each of the wells. Following the incubation at room temperature for 30 minutes, the reaction was stopped by adding 50 µl stopping solution (IN HCl) to each of the wells. The plates were shaken in an orbital shaker for 10 seconds and the spectrophotometric absorbance was measured in 490 nm test wavelength and 690 nm reference wavelength. The results were determined as "cytotoxicity %". The average absorbance values of negative control were extracted from control and experiment groups and they were calculated by using the formula below by comparing control and experiment groups according to positive control group, and by assuming that positive control group is 100% cytotoxic: 100% Cytotoxicity = ((Experiment or Control Value)−(Negative Control))/((Positive Control)−(Negative Control)) × 100 [formula]
# Lactate dehydrogenase release in INS-1 cells wherein different palmitic acid doses were applied was measured using cytotoxicity kit and the results are shown in Figure 4.
# Protective and therapeutic effect of 10 nM curaglutide on necrosis is shown in Figure 10 by the evaluation of LDH secretion at 3 and 4 mM doses in INS-1 beta cells. According to the results, in INS-1 beta cells % cytotoxicity values are 48.2±2 in the group where 3 mM dose (necrotic dose) of palmitic acid was administered, 11.6±2.9 in the group where 10 nM curaglutide was administered as a protective against necrotic dose, 11.6±4.8 in the group where 10 nM curaglutide was supplied as a curative agent in necrotic dose, 81.3±5.9 in the group where 4 mM dose of palmitic acid was administered, […] in the group where curaglutide was administered as a protective against 4 mM palmitic acid, 68.2±7.2 in the group where 10 nM curaglutide was administered as therapeutic at 4 mM dose of palmitic acid. As compared to the control group, statistically meaningful results were obtained in both doses in terms of protective effect (p<0,0001). […]
# [4] = 10 nM curaglutide as curative agent, 2 mM palmitic acid (apoptotic dose)
# [5] = 10 nM curaglutide as protector against 2 mM palmitic acid (apoptotic dose)
smiles,measurement,setting,value
CC[C@H](C)[C@H](NC(=O)[C@H](Cc1ccccc1)NC(=O)[C@H](CCC(=O)O)NC(=O)[C@H](CCCCN)NC(=O)[C@H](C)NC(=O)[C@H](C)NC(=O)[C@H](CCC(N)=O)NC(=O)CNC(=O)[C@H](CCC(=O)O)NC(=O)[C@H](CC(C)C)NC(=O)[C@H](Cc1ccc(O)cc1)NC(=O)[C@H](CO)NC(=O)[C@H](CO)NC(=O)[C@@H](NC(=O)[C@H](CC(=O)O)NC(=O)[C@H](CO)NC(=O)[C@@H](NC(=O)[C@H](Cc1ccccc1)NC(=O)[C@@H](NC(=O)CNC(=O)[C@H](CCC(=O)O)NC(=O)[C@H](C)NC(=O)[C@H](Cc1c[nH]cn1)NC(C)=O)[C@@H](C)O)[C@@H](C)O)C(C)C)C(=O)N[C@@H](C)C(=O)N[C@@H](Cc1c[nH]c2ccccc12)C(=O)N[C@@H](CC(C)C)C(=O)N[C@H](C(=O)N[C@@H](CCCCN)C(N)=O)C(C)C [curaglutide],amount of active caspase-3,[1]; [4],0.54±0.00
same,amount of active caspase-3,[1]; [5],0.67±0.00
same,amount of intracellular p53,[2]; [4],0.65±0.13
same,amount of intracellular p53,[2]; [5],0.54±0.24
same,% cytotoxicity values,"[3]; 10 nM curaglutide as curative agent, 3 mM palmitic acid (necrotic dose)",11.6±4.8%
same,% cytotoxicity values,[3]; 10 nM curaglutide as protective against 3 mM palmitic acid (necrotic dose),11.6±2.9%
same,% cytotoxicity values,[3]; 10 nM curaglutide as therapeutic at 4 mM palmitic acid,68.2±7.2%
same,% cytotoxicity values,[3]; curaglutide as protective against 4 mM palmitic acid,45.8±6.8%
CCCCCCCCCCCCCCCC(=O)O [palmitic acid],active caspase-3 amounts,"[1]; 0.75 mM palmitic acid, control 1.08±0.00",1.03±0.03
same,active caspase-3 amounts,"[1]; 1 mM palmitic acid, control 1.08±0.00",1.03±0.00
same,active caspase-3 amounts,"[1]; 1.75 mM palmitic acid, control 1.08±0.00",1.02±0.05
same,active caspase-3 amounts,"[1]; 2 mM palmitic acid (apoptotic dose), control 1.08±0.00 / 1.07±0.01",1.26±0.00 and 1.22±0.00
same,active caspase-3 amounts,"[1]; 2.5 mM palmitic acid, control 1.08±0.00",1.15±0.03
same,active caspase-3 amounts,"[1]; 3 mM palmitic acid, control 1.08±0.00",1.06±0.00
same,p-53 amounts,"[2]; 0.75 mM palmitic acid, control 1.04±0.00",1.1±0.00
same,p-53 amounts,"[2]; 1 mM palmitic acid, control 1.04±0.00",1.14±0.00
same,p-53 amounts,"[2]; 1.75 mM palmitic acid, control 1.04±0.00",1.16±0.05
same,p-53 amounts,"[2]; 2 mM palmitic acid (apoptotic dose), control 1.04±0.00 / 1.06±0.00",1.3±0.02 and 1.31±0.02
same,p-53 amounts,"[2]; 2.5 mM palmitic acid, control 1.04±0.00",1.14±0.06
same,p-53 amounts,"[2]; 3 mM palmitic acid, control 1.04±0.00",1.03±0.00
same,cytotoxicity value percentages,[3]; 1 mM palmitic acid,1±0%
same,cytotoxicity value percentages,[3]; 2 mM palmitic acid,13.5±2.4%
same,cytotoxicity value percentages,[3]; 3 mM palmitic acid (necrotic dose),48.2±2%
same,cytotoxicity value percentages,[3]; 4 mM palmitic acid,81.3±5.9%
